11 molecules from patent US20240115745A1, “COMPOUNDS COMPRISING A FIBROBLAST ACTIVATION PROTEIN LIGAND AND USE THEREOF” (3B PHARMACEUTICALS GMBH, priority 2021, published 2024) can be followed below.

Like-named read-outs stand apart in the source and are kept apart here. *1 amine or outer side, *2 acyl side, *3 side chain or, on linkers, in order; H or OH if unused. Where a SMILES comes first, the peptide text is derived from it. Bridges are numbered along the chain shown (N, C = ends). [ ]: non-standard residue; d: D form. The star is where a group is joined. X4 = O=C(O)CN1CCN(CC(=O)O)CCN(CC(=O)NCCCOCCOCCOCCCN*)CCN(CC(=O)O)CC1; X1 = NC(=O)CC[C@H](N[*:1])C(=O)C[C@@H](Cc1ccccc1)C(=O)[*:2]; DOTA = O=C(O)CN1CCN(CC(=O)O)CCN(CC(=O)*)CCN(CC(=O)O)CC1; Maleimide(3,4-diyl) = O=C1NC(=O)C([*:2])=C1[*:1]; X9 = O=C(C1CCC[C@H]1C(=O)[*:2])[C@@H]1CCCN1[*:1]; X8 = NCCNCC(CNCCN)C(=O)NCCCOCCOCCOCCCN*; Suc = O=C(CCC(=O)[*:2])[*:1]; 4Amb = NCc1ccc(C(=O)O)cc1; Nle = CCCC[C@H](N)C(=O)O; AEEA = NCCOCCOCC(=O)O; βAla = NCCC(=O)O

Assay [1] has as its target T1, FAP-expressing human WI-38 fibroblasts (Homo sapiens, UniProt Q12884).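 Also: flow cytometry read-out of median Cy5 fluorescence on the cells, plotted versus test compound concentration, with IC50 derived by four-parameter logistic curve fitting.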
T1 construct: FAP-expressing human WI-38 fibroblasts (ECACC) were cultured in EMEM; host or cells: WI-38 human fibroblasts
Nature of the assay: Competitive FACS binding assay. (Flow cytometry measures light scatter and fluorescence of single cells or particles in a stream.)

The target of assay [2] is T2, Recombinant human FAP (Homo sapiens, UniProt Q12884).
T2 construct: purchased R&D systems 3715-SE
T2 sequence (Q12884 26-760 limits assumed): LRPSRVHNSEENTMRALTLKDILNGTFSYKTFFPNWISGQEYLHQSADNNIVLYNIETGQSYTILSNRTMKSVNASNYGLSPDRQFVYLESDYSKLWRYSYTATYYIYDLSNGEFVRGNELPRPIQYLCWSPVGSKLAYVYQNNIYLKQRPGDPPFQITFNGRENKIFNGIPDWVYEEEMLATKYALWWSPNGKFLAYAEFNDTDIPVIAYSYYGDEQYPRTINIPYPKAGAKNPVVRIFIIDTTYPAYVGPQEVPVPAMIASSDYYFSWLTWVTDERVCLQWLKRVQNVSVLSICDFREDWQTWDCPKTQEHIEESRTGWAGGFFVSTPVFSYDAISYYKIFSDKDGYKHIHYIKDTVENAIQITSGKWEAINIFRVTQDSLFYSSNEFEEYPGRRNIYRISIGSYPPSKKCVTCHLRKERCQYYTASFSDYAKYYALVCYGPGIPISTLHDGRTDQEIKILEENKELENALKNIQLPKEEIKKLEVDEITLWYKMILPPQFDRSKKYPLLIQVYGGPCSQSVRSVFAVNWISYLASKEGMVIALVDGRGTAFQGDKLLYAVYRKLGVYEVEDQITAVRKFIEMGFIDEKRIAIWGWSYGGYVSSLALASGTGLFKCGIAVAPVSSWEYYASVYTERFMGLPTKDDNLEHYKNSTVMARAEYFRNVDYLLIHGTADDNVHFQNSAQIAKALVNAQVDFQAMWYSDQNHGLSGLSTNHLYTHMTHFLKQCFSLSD
Nature of the assay: FRET-based FAP protease activity assay. The format is biochemical.

Setting [3] is: competition with 3 nM Cy5-labeled compound, WI-38 fibroblasts, 4° C., 1 hour, read-out: pIC50 Category (FACS) (converted).
[4] abbreviates: recombinant human FAP, FRET-peptide substrate, 37° C., read-out: pIC50 Category (Activity) (converted).

T1 sequence (Q12884 whole entry): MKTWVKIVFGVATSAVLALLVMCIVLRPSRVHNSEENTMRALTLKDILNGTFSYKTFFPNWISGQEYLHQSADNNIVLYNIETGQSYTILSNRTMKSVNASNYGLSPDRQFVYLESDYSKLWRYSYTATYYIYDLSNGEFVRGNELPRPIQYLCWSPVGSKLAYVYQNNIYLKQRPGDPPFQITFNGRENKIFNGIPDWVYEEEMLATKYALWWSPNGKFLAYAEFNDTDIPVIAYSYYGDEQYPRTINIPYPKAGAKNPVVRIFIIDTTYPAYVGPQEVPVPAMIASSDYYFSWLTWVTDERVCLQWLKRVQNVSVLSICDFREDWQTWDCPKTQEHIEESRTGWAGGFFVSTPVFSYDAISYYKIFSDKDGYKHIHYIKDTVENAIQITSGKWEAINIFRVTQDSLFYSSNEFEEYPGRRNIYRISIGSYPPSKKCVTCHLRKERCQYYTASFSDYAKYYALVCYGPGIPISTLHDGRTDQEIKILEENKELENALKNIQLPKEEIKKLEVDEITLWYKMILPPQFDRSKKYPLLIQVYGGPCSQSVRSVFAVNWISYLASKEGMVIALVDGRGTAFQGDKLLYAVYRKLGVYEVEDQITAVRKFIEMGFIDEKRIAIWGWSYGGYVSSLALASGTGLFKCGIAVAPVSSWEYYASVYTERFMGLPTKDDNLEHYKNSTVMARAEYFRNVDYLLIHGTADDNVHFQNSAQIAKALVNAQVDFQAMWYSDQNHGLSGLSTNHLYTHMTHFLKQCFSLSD

For the molecule `CCCC[C@H](NC(=O)COCCOCCNC(=O)CN1CCN(CC(=O)O)CCN(CC(=O)O)CCN(CC(=O)O)CC1)C(=O)N[C@H]1CSC2=C(SC[C@@H](C(=O)N[C@@H](CC(=O)O)C(N)=O)NC(=O)[C@H](Cc3ccccc3)CC(=O)[C@H](CCC(N)=O)NC(=O)[C@H]([C@@H](C)O)NC(=O)[C@@H]3CCCN3C(=O)[C@@H]3CCCN3C1=O)C(=O)NC2=O` [Compound 2004, DOTA-O2Oc-Nle-[Cys(mli)-Pro-Pro-Thr-Gln-Phe-Cys]-Asp-NH2] ({DOTA-AEEA}-[Nle]CPPT[X1]CD-NH2; linker 2-7 via Maleimide(3,4-diyl)), the IC50 in assay [1] (setting [3]) is less than 100 nM; in assay [1] (read-out: pIC50 (highest activity categories, FACS binding) (converted)), less than 100 nM; in assay [2] (read-out: pIC50 (highest activity categories, FAP activity) (converted)), less than 100 nM; in assay [2] (setting [4]) it was less than 100 nM.
As for `CCCC[C@H](NC(=O)CCC(=O)NCCCOCCOCCOCCCNC(=O)CN1CCN(CC(=O)O)CCN(CC(=O)O)CCN(CC(=O)O)CC1)C(=O)N[C@H]1CSSC[C@@H](C(=O)N[C@@H](CC(=O)O)C(=O)N[C@@H](Cc2c[nH]cn2)C(=O)N[C@@H](Cc2ccccc2)C(=O)N[C@@H](CCCNC(=N)N)C(=O)N[C@@H](CC(=O)O)C(N)=O)NC(=O)[C@H](Cc2ccccc2)NC(=O)[C@H](CCC(=O)O)NC(=O)[C@H]([C@@H](C)O)NC(=O)[C@@H]2CCCN2C(=O)[C@@H]2CCCN2C1=O` [Compound 1006, DOTA-Ttds-Nle-[Cys-Pro-Pro-Thr-Glu-Phe-Cys]-Asp-His-Phe-Arg-Asp-NH2] ({X4-Suc}-[Nle]CPPTEFCDHFRD-NH2; disulfide 2-8), the IC50 in assay [1] (setting [3]) and in assay [2] (setting [4]) was less than 100 nM each time.
In the case of `CCCC[C@H](NC(=O)CN1CCN(CC(=O)O)CCN(CC(=O)O)CCN(CC(=O)O)CC1)C(=O)N[C@H]1CSSC[C@@H](C(=O)N[C@@H](CC(=O)O)C(N)=O)NC(=O)[C@H](Cc2ccccc2)NC(=O)[C@H](CCC(=O)O)NC(=O)[C@H]([C@@H](C)O)NC(=O)[C@@H]2CCCN2C(=O)[C@@H]2CCCN2C1=O` [Compound 1004, DOTA-Nle-[Cys-Pro-Pro-Thr-Glu-Phe-Cys]-Asp-NHd2] (HELM PEPTIDE1{[O=C(O)CN1CCN(CC(=O)O)CCN(CC(=O)[*:2])CCN(CC(=O)O)CC1].[Nle].C.P.P.T.E.F.C.D.[am]}$PEPTIDE1,PEPTIDE1,3:R3-9:R3$$$V2.0), the IC50 in assay [1] (setting [3]) and in assay [2] (setting [4]) was less than 100 nM each time.
As for `CCCC[C@H](NC(=O)CCC(=O)NCCCOCCOCCOCCCNC(=O)CN1CCN(CC(=O)O)CCN(CC(=O)O)CCN(CC(=O)O)CC1)C(=O)N[C@H]1CSSC[C@@H](C(=O)N[C@@H](CC(=O)O)C(=O)NCc2ccc(C(=O)N[C@@H](CCCNC(=N)N)C(N)=O)cc2)NC(=O)[C@H](Cc2ccccc2)NC(=O)[C@H](CCC(=O)O)NC(=O)[C@H]([C@@H](C)O)NC(=O)[C@@H]2CCCN2C(=O)[C@@H]2CCCN2C1=O` [Compound 1007, DOTA-Ttds-Nle-[Cys-Pro-Pro-Thr-Glu-Phe-Cys]-Asp-Pamb-Arg-NH2] ({X4-Suc}-[Nle]CPPTEFCD[4Amb]R-NH2; disulfide 2-8), the IC50 in assay [1] (setting [3]) and in assay [2] (setting [4]) was less than 100 nM each time.
`CCCC[C@H](NC(=O)CCC(=O)NCCCOCCOCCOCCCNC(=O)CC[C@H](C(=O)O)N1CCN(CC(=O)O)CCN(CC(=O)O)CC1)C(=O)N[C@H]1CSC2=C(SC[C@@H](C(=O)NCCC(=O)O)NC(=O)[C@H](Cc3ccccc3)NC(=O)[C@H](CCC(N)=O)NC(=O)[C@H]([C@@H](C)O)NC(=O)[C@@H]3CCCN3C(=O)[C@@H]3CCCN3C1=O)C(=O)NC2=O` [Compound 2021, NODAGA-Ttds-Nle-[Cys(mli)-Pro-Pro-Thr-Gln-Phe-Cys]-Bal-OH]: the IC50 in assay [1] (setting [3]) and in assay [2] (setting [4]) was less than 100 nM in each case.
In the case of `CCCC[C@H](NC(=O)CCC(=O)NCCCOCCOCCOCCCNC(=O)C(CNCCN)CNCCN)C(=O)N[C@H]1CSSC[C@@H](C(=O)NCCC(=O)O)NC(=O)[C@H](Cc2ccccc2)NC(=O)[C@H](CCC(N)=O)NC(=O)[C@H]([C@@H](C)O)NC(=O)[C@@H]2CCCC2C(=O)[C@@H]2CCCN2C1=O` (stereo partly drawn) [Compound 1019, N4Ac-Ttds-Nle-[Cys-Pro-Pro-Thr-Gln-Phe-Cys]-Bal-OH] ({X8-Suc}-[Nle]C[X9]TQFC[βAla]-OH; disulfide 2-7), the IC50 in assay [1] (setting [3]) and in assay [2] (setting [4]) was less than 100 nM throughout.
`CCCCCC(=O)N[C@H]1CSC2=C(SC[C@@H](C(=O)N[C@@H](CC(=O)O)C(N)=O)NC(=O)[C@H](Cc3ccccc3)NC(=O)[C@H](CCC(N)=O)NC(=O)[C@H]([C@@H](C)O)NC(=O)[C@@H]3CCCN3C(=O)[C@@H]3CCCN3C1=O)C(=O)N(CCCOCCOCCOCCCNC(=O)CN1CCN(CC(=O)O)CCN(CC(=O)O)CCN(CC(=O)O)CC1)C2=O` [Compound 2017, Hex-[Cys(mli(DOTA-Ttd))-Pro-Pro-Thr-Gln-Phe-Cys]-Asp-NH2] (HELM PEPTIDE1{[CCCCCC(=O)[*:2]].C.P.P.T.Q.F.C.D.[am]}|CHEM1{[O=C(O)CN1CCN(CC(=O)O)CCN(CC(=O)NCCCOCCOCCOCCCN2C(=O)C([*:1])=C([*:2])C2=O)CCN(CC(=O)O)CC1]}$PEPTIDE1,CHEM1,2:R3-1:R1|PEPTIDE1,CHEM1,8:R3-1:R2$$$V2.0): the IC50 in assay [1] and in assay [2] was less than 100 nM each time.
Regarding `CCCC[C@H](NC(=O)CCC(=O)NCCCOCCOCCOCCCNC(=O)CN1CCN(CC(=O)O)CCN(CC(=O)O)CCN(CC(=O)O)CC1)C(=O)N[C@H]1CSC2=C(SC[C@@H](C(=O)O)NC(=O)[C@H](Cc3ccccc3)CC(=O)[C@H](CCC(N)=O)NC(=O)[C@H]([C@@H](C)O)NC(=O)[C@@H]3CCCN3C(=O)[C@@H]3CCCN3C1=O)C(=O)NC2=O` [Compound 2008, DOTA-Ttds-Nle-[Cys(mli)-Pro-Pro-Thr-Gln-Phe-Cys]-OH], the IC50 in assay [1] (setting [3]) and in assay [2] (setting [4]) was less than 100 nM each time.
Take `CSCC[C@H](N)C(=O)N[C@H]1CSSC[C@@H](C(=O)N[C@@H](CC(=O)O)C(=O)N[C@@H](Cc2c[nH]cn2)C(=O)N[C@@H](Cc2ccccc2)C(=O)N[C@@H](CCCNC(=N)N)C(=O)N[C@@H](CC(=O)O)C(N)=O)NC(=O)[C@H](Cc2ccccc2)NC(=O)[C@H](CCC(=O)O)NC(=O)[C@H]([C@@H](C)O)NC(=O)[C@@H]2CCCN2C(=O)[C@@H]2CCCN2C1=O` [Compound 1001, H-Met-[Cys-Pro-Pro-Thr-Glu-Phe-Cys]-Asp-His-Phe-Arg-Asp-NH2] (HELM PEPTIDE1{M.C.P.P.T.E.F.C.D.H.F.R.D.[am]}$PEPTIDE1,PEPTIDE1,2:R3-8:R3$$$V2.0): the IC50 in assay [1] (setting [3]) and in assay [2] (setting [4]) was less than 100 nM in each case.
Regarding `CCCC[C@H](NC(=O)CCC(=O)NCCCOCCOCCOCCCNC(=O)CC[C@H](C(=O)O)N1CCN(CC(=O)O)CCN(CC(=O)O)CC1)C(=O)N[C@H]1CSSC[C@@H](C(=O)NCCC(=O)O)NC(=O)[C@H](Cc2ccccc2)NC(=O)[C@H](CCC(N)=O)NC(=O)[C@H]([C@@H](C)O)NC(=O)[C@@H]2CCCN2C(=O)[C@@H]2CCCN2C1=O` [Compound 1018, NODAGA-Ttds-Nle-[Cys-Pro-Pro-Thr-Gln-Phe-Cys]-Bal-OH], the IC50 in assay [1] (setting [3]) and in assay [2] (setting [4]) was less than 100 nM in each case.
With `CCCC[C@H](NC(=O)CCC(=O)NCCCOCCOCCOCCCNC(=O)CN1CCN(CC(=O)O)CCN(CC(=O)O)CCN(CC(=O)O)CC1)C(=O)N[C@H]1CSC2=C(SC[C@@H](C(=O)N[C@@H](CC(=O)O)C(=O)NCc3ccc(C(=O)N[C@@H](CCCNC(=N)N)C(N)=O)cc3)NC(=O)[C@H](Cc3ccccc3)CC(=O)[C@H](CCC(N)=O)NC(=O)[C@H]([C@@H](C)O)NC(=O)[C@@H]3CCCN3C(=O)[C@@H]3CCCN3C1=O)C(=O)NC2=O` [Compound 2006, DOTA-Ttds-Nle-[Cys(mli)-Pro-Pro-Thr-Gln-Phe-Cys]-Asp-Pamb-Arg-NH2] ({X4-Suc}-[Nle]CPPT[X1]CD[4Amb]R-NH2; linker 2-7 via Maleimide(3,4-diyl)), the IC50 in assay [1] (setting [3]) and in assay [2] (setting [4]) was less than 100 nM in each case.
